This series in a line: UV absorption (molar extinction coefficient). The class given is physicochemical. The settings on record: in methanol. As to the method:
Ethyl p-methoxy cinnamate (206.0 g, 1.0 mole), N,N-dimethylpropyldiamine (306.0 g, 3.0 mole) and sodium methoxide (2.0 g) were charged in a pressure reactor. The air inside the reactor was flushed out by purging of nitrogen. The reaction mixture was then stirred at 180° C. (this generated pressure of 18 kg/cm^2) for 36 hours. The progress of reaction was monitored by disappearance of ethyl p-methoxy cinnamate on chromatography (TLC and HPLC). The TLC was performed on aluminium coated silica gel plates (Merck-60-F-254) and viewed with a UV lamp at 254 nm. HPLC was performed using reversed phase technique on a C-18 bonded (octadecyl silane) column and 60% aqueous methanol as mobile phase (1.0 ml/min) and detection at 280 nm. The excess amine was removed under vacuum.

2 compounds from US6613340B2, “Substantive hydrophobic cationic UV-absorbing compounds” (Galaxy Surfactants Ltd., priority 2001, dated 2003) can be followed below.

SMILES strings stand for the structures.

As for `COc1ccc(C=CC(=O)NCCCN(C)C)cc1` [p-methoxy cinnamidopropyldimethylamine], where the note is “at 290 nm, in M-1cm-1 (unit assumed)”, the “molar extinction coefficient, ε” value is listed as 24,224.

`CCCCCCCCCCCC[N+](C)(C)CCCNC(=O)C=Cc1ccc(OC)cc1.Cc1ccc(S(=O)(=O)[O-])cc1` [p-methoxy cinnamidopropyldimethyllauryl ammonium tosylate]: the “molar extinction coefficient, ε” value (at λmax 310 nm) was 25,000.
